Reference: PubChem BioAssay AID1919008 (Molecular Pharmacology Branch, DTP, NCI, 2023)

Test system: DMS-114 complex spheroids with HUVEC/MSC, growth % test/control
Experiment: Anticancer human tumor DMS-114 cell line growth inhibition [AhR];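 further: spheroids exposed to agents for 7 days before readout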;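 on viability, T/C: 100% = DMSO vehicle control wells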
Details: for IC50: curve of first compound; for viability, T/C: stronger effect = lower value
From the text: Multicellular complex tumor spheroid response to aryl hydrocarbon receptor antagonists in combination with a variety of drugs and investigational agents in selected tumor cell lines
The current study was undertaken to assess response to aryl hydrocarbon receptor antagonists in combination with standard-of-care drugs and investigational agents in solid tumor complex spheroid models. Complex spheroids include a stromal component modeled by human endothelial cells (HUVEC) and fibroblasts modeled by human mesenchymal stem cells (MSCs). The concentration ranges selected for each drug and investigational agent were based upon clinically achievable concentrations if the clinical Cmax of the agent was known.
Compounds. The drugs and investigational agents: BAY 2416964 (NSC825713), GNF351 (NSC835774), CH-223191 (NSC835775), CPI-455 (NSC825282), aza-TdCyd (NSC777586), decitabine (NSC127716), belinostat (NSC758774), entinostat (NSC756642), pevonedistat (NSC761192), tazemetostat (NSC777109), talazoparib (NSC765396), olaparib (NSC753686), selinexor (NSC780203), nedisertib (M3814, NSC802822), bortezomib (NSC756655), venetoclax (NSC766270), doxorubicin (NSC123127), elimusertib (BAY189344, NSC800525), ceralasertib (AZD6738, NSC777638), TAK-243 (NSC785004), alisertib (NSC759677), etoposide (NSC141540), topotecan (NSC609699), eribulin (NSC707389), gemcitabine (NSC613327), carboplatin (NSC241240), cisplatin (NSC119875), and SN-38 (NSC673596) were obtained from the National Cancer Institute (NCI) Developmental Therapeutics Program Chemical Repository (32). The FDA-approved anticancer drug set is available from the Developmental Therapeutics Program at https://dtp.cancer.gov/organization/dscb/obtaining/available plates.htm. […] The stock solutions were prepared in dimethyl sulfoxide (DMSO, Sigma-Aldrich, St. Louis, MO, cat. D2650), except for the platinum compounds which were prepared in saline (Quality Biological, Gaithersburg, MD, cat. 114-055-101), at 800-fold the tested concentration and stored at -70 degrees C prior to their use. All drugs and investigational agents were tested over a range starting from a high concentration at or near the clinical Cmax and decreasing in half-log increments. If the clinical Cmax for an agent had not been determined, the highest concentration tested was 10 microM (Table 1).
Cell Culture. All cells were maintained in an incubator at 37 degrees C and 5% CO2 with 95% humidity. The PDC lines were cultured according to standard operating procedures established by the NCI PDMR (https://pdmr.cancer.gov). Briefly, all PDCs were thawed and cultured in Matrigel-coated flasks prepared with a working solution of 1X Ham's F-12 nutrient mix, without supplementation (Invitrogen, Waltham, MA, cat. 11765054), 100 U/mL penicillin-streptomycin (Invitrogen, cat. 15140122), and 2.5% Matrigel (Corning Inc., Corning, NY, cat. 354248) for the first three passages. All PDCs were cultured in complete DMEM/F-12 media containing advanced DMEM/F-12 (Invitrogen, cat. 12634028), 4.9% defined fetal bovine serum, heat inactivated (HyClone Laboratories Inc., Logan, UT, cat. SH30070.03HI), 389 ng/mL hydrocortisone (Sigma-Aldrich, cat. H4001), 9.7 ng/mL human EGF recombinant protein (Invitrogen, cat. PHG0313), 23.4 microg/mL adenine (Sigma-Aldrich, cat. A2786), 97.3 U/mL penicillin-streptomycin (Invitrogen, cat. 15140122), 1.9 mM L-glutamine (Invitrogen, cat. 25030081), and 9.7 microM Y-27632 dihydrochloride (Tocris Bioscience, Bristol, United Kingdom, cat. 1254). The PDCs were cultured in complete DMEM/F12 media without 10 microM Y-27632 dihydrochloride for at least two passages prior to the screen. The established cell lines NCI-H1341 and […] were cultured in DMEM/F-12, HEPES (Invitrogen, cat. 11330032), 5% defined fetal bovine serum (HyClone Laboratories Inc., cat. SH30070.03), ITS premix universal culture supplement [insulin (5 microg/mL), transferrin (5 microg/mL), and selenious acid (5 ng/mL)] […]

[1] = second compound 0.1 µM, first compound 0.0316 µM
[2] = second compound 0.1 µM, first compound 0.1 µM
[3] = second compound 0.1 µM, first compound 0.316 µM
[4] = second compound 0.1 µM, first compound 1 µM
[5] = second compound 0.1 µM, first compound 3.16 µM
[6] = second compound 0.1 µM, first compound 10 µM
[7] = second compound 0.316 µM, first compound 0.0316 µM
[8] = second compound 0.316 µM, first compound 0.1 µM
[9] = second compound 0.316 µM, first compound 0.316 µM
[10] = second compound 0.316 µM, first compound 1 µM
[11] = second compound 0.316 µM, first compound 3.16 µM
[12] = second compound 0.316 µM, first compound 10 µM
[13] = second compound 1 µM, first compound 0.0316 µM
[14] = second compound 1 µM, first compound 0.1 µM
[15] = second compound 1 µM, first compound 0.316 µM
[16] = second compound 1 µM, first compound 1 µM
[17] = second compound 1 µM, first compound 3.16 µM
[18] = second compound 1 µM, first compound 10 µM
[19] = second compound 3.16 µM, first compound 0.0316 µM
[20] = second compound 3.16 µM, first compound 0.1 µM
[21] = second compound 3.16 µM, first compound 0.316 µM
[22] = second compound 3.16 µM, first compound 1 µM
[23] = second compound 3.16 µM, first compound 3.16 µM
[24] = second compound 3.16 µM, first compound 10 µM
[25] = second compound 10 µM, first compound 0.0316 µM
[26] = second compound 10 µM, first compound 0.1 µM
[27] = second compound 10 µM, first compound 0.316 µM
[28] = second compound 10 µM, first compound 1 µM
[29] = second compound 10 µM, first compound 3.16 µM
[30] = second compound 10 µM, first compound 10 µM

CC(C)CC(NC(=O)C(Cc1ccccc1)NC(=O)c1cnccn1)B(O)O (stereo not given) + CC(CO)NC(=O)c1cc(-c2ccc(Cl)cc2)nn(-c2cnn(C)c2)c1=O gave an IC50 (second compound 0.1 µM) of 3.61 nM, an IC50 (second compound 0.316 µM) of 4.04 nM and an IC50 (second compound 1 µM) of 3.33 nM. The IC50 (second compound 3.16 µM) was 3.29 nM, the IC50 (second compound 10 µM) was 4.34 nM and the viability, T/C (second compound 0.1 µM, first compound 0.000949 µM) was 100%. The viability, T/C (second compound 0.1 µM, first compound 0.003 µM) was 59.4%, the viability, T/C (second compound 0.1 µM, first compound 0.00949 µM) was 0.72% and the viability, T/C (second compound 0.1 µM, first compound 0.03 µM) was 0.35%. For the same compound, the viability, T/C (second compound 0.1 µM, first compound 0.0949 µM) was 0.11%, the viability, T/C (second compound 0.1 µM, first compound 0.3 µM) was 0.29% and the viability, T/C (second compound 0.316 µM, first compound 0.000949 µM) was 95.5%. The viability, T/C (second compound 0.316 µM, first compound 0.003 µM) was 66.8%, the viability, T/C (second compound 0.316 µM, first compound 0.00949 µM) was 1.94% and the viability, T/C (second compound 0.316 µM, first compound 0.03 µM) was 0.05%. It also gave a viability, T/C (second compound 0.316 µM, first compound 0.0949 µM) of 0.3%, a viability, T/C (second compound 0.316 µM, first compound 0.3 µM) of 0.42% and a viability, T/C (second compound 1 µM, first compound 0.000949 µM) of 113%. The viability, T/C (second compound 1 µM, first compound 0.003 µM) was 54.8%, the viability, T/C (second compound 1 µM, first compound 0.00949 µM) was 1.26% and the viability, T/C (second compound 1 µM, first compound 0.03 µM) was 0.32%. It also gave a viability, T/C (second compound 1 µM, first compound 0.0949 µM) of 0.11%, a viability, T/C (second compound 1 µM, first compound 0.3 µM) of 0.25% and a viability, T/C (second compound 3.16 µM, first compound 0.000949 µM) of 85.7%. It also gave a viability, T/C (second compound 3.16 µM, first compound 0.003 µM) of 54.4%, a viability, T/C (second compound 3.16 µM, first compound 0.00949 µM) of 0.8% and a viability, T/C (second compound 3.16 µM, first compound 0.03 µM) of 0.07%. For the same compound, the viability, T/C (second compound 3.16 µM, first compound 0.0949 µM) was 0.76%, the viability, T/C (second compound 3.16 µM, first compound 0.3 µM) was 0.17% and the viability, T/C (second compound 10 µM, first compound 0.000949 µM) was 99%. The viability, T/C (second compound 10 µM, first compound 0.003 µM) was 72.8%, the viability, T/C (second compound 10 µM, first compound 0.00949 µM) was 1.52% and the viability, T/C (second compound 10 µM, first compound 0.03 µM) was 0.2%. It also gave a viability, T/C (second compound 10 µM, first compound 0.0949 µM) of 0.15% and a viability, T/C (second compound 10 µM, first compound 0.3 µM) of 0.26%.

With Nc1ccccc1NC(=O)c1ccc(CNC(=O)OCc2cccnc2)cc1 + CC(CO)NC(=O)c1cc(-c2ccc(Cl)cc2)nn(-c2cnn(C)c2)c1=O the IC50 (second compound 0.1 µM) was 749 nM, the IC50 (second compound 0.316 µM) was 782 nM and the IC50 (second compound 1 µM) was 726 nM. For the same compound, the IC50 (second compound 3.16 µM) was 650 nM, the IC50 (second compound 10 µM) was 813 nM and the viability, T/C [1] was 87.3%. It also gave a viability, T/C [2] of 85.8%, a viability, T/C [3] of 68.2% and a viability, T/C [4] of 43.6%. The viability, T/C [5] was 23.1%, the viability, T/C [6] was 13.4% and the viability, T/C [7] was 87%. For the same compound, the viability, T/C [8] was 89.7%, the viability, T/C [9] was 76.4% and the viability, T/C [10] was 42.3%. The viability, T/C [11] was 20.6%, the viability, T/C [12] was 13.5% and the viability, T/C [13] was 91.2%. The viability, T/C [14] was 87.6%, the viability, T/C [15] was 73.4% and the viability, T/C [16] was 39.8%. It also gave a viability, T/C [17] of 24.6%, a viability, T/C [18] of 14.8% and a viability, T/C [19] of 92.8%. For the same compound, the viability, T/C [20] was 75.4%, the viability, T/C [21] was 68.5% and the viability, T/C [22] was 40.1%. The viability, T/C [23] was 23.2%, the viability, T/C [24] was 14.8% and the viability, T/C [25] was 90%. For the same compound, the viability, T/C [26] was 87.7%, the viability, T/C [27] was 69.2% and the viability, T/C [28] was 45.8%. The viability, T/C [29] was 24.9% and the viability, T/C [30] was 14.4%.

O=C(C=Cc1cccc(S(=O)(=O)Nc2ccccc2)c1)NO + CC(CO)NC(=O)c1cc(-c2ccc(Cl)cc2)nn(-c2cnn(C)c2)c1=O gave an IC50 (second compound 0.1 µM) of 406 nM, an IC50 (second compound 0.316 µM) of 381 nM and an IC50 (second compound 1 µM) of 459 nM. For the same compound, the IC50 (second compound 3.16 µM) was 543 nM, the IC50 (second compound 10 µM) was 482 nM and the viability, T/C [1] was 75.9%. The viability, T/C [2] was 77.6%, the viability, T/C [3] was 55.1% and the viability, T/C [4] was 27.2%. It also gave a viability, T/C [5] of 13.3%, a viability, T/C [6] of 11.9% and a viability, T/C [7] of 77.6%. The viability, T/C [8] was 78.3%, the viability, T/C [9] was 53.2% and the viability, T/C [10] was 26.2%. For the same compound, the viability, T/C [11] was 11.3%, the viability, T/C [12] was 12.4% and the viability, T/C [13] was 84.6%. For the same compound, the viability, T/C [14] was 81.2%, the viability, T/C [15] was 61.1% and the viability, T/C [16] was 26.9%. For the same compound, the viability, T/C [17] was 11.1%, the viability, T/C [18] was 13.5% and the viability, T/C [19] was 82%. For the same compound, the viability, T/C [20] was 76.9%, the viability, T/C [21] was 68.1% and the viability, T/C [22] was 29.9%. It also gave a viability, T/C [23] of 12.4%, a viability, T/C [24] of 12.3% and a viability, T/C [25] of 90.6%. It also gave a viability, T/C [26] of 68.2%, a viability, T/C [27] of 64.6% and a viability, T/C [28] of 35%. The viability, T/C [29] was 13.8% and the viability, T/C [30] was 14.5%.
